Assay results from ChEMBL document CHEMBL1671823, “Novel Cyclic Phosphinic Acids as GABAC ρ Receptor Antagonists: Design, Synthesis, and Pharmacology” (ACS Med Chem Lett, 2011).
Blank lines part the entries; values can stand above or below the molecule they belong to. Activity calls are given as the source filed them. No cut-off for these calls is given here.

Columns and labels:
GABA-B receptor = GABA-B receptor (Homo sapiens, UniProt O75899+Q9UBS5); test: Antagonist activity at human recombinant GABAb 1b/2 receptor expressed in Xenopus laevis oocytes co-expressing GIRK1/4 assessed as inhibition of GABA-induced current by two electrode voltage clamp technique; type: functional, cell-based, Oocyte
[1] = target: T1, Gamma-aminobutyric acid receptor subunit rho-1 (Homo sapiens, UniProt P24046); test: Antagonist activity at human recombinant GABAc rho-1 receptor expressed in Xenopus laevis oocytes assessed as inhibition of GABA-induced current by two electrode voltage clamp technique; type: functional, cell-based, Oocyte; details: for Kb: Oocyte
[2] = target: Gamma-aminobutyric acid receptor subunit rho-2 (Homo sapiens, UniProt P28476); test: Antagonist activity at human recombinant GABAc rho-2 receptor expressed in Xenopus laevis oocytes assessed as inhibition of GABA-induced current by two electrode voltage clamp technique; type: functional, cell-based, Oocyte
[3] = target: T2, GABA-A receptor; alpha-1/beta-2/gamma-2 (Homo sapiens) (UniProt P14867+P47870+P18507); test: Antagonist activity at human recombinant GABAA alpha1beta2gamma2L receptor expressed in Xenopus laevis oocytes assessed as inhibition of GABA-induced current at 100 uM by two electrode voltage clamp technique; type: functional, cell-based; details: Oocyte
[4] = target: T1, Gamma-aminobutyric acid receptor subunit rho-1; test: Antagonist activity at human recombinant GABAc rho-1 receptor expressed in Xenopus laevis oocytes assessed as inhibition of GABA-induced current at 100 uM by two electrode voltage clamp technique; type: functional, cell-based; details: Oocyte
[5] = target: T2, GABA-A receptor; alpha-1/beta-2/gamma-2 (Homo sapiens); test: Antagonist activity at human recombinant GABAA alpha1beta2gamma2L receptor expressed in Xenopus laevis oocytes assessed as inhibition of GABA-induced current at 300 uM by two electrode voltage clamp technique; type: functional, cell-based; details: Oocyte
[6] = target: T3, GABA-B receptor (Homo sapiens) (UniProt Q9UBS5+O75899); test: Antagonist activity at human recombinant GABAb 1b/2 receptor expressed in Xenopus laevis oocytes co-expressing GIRK1/4 assessed as inhibition of GABA-induced current at 300 uM by two electrode voltage clamp technique; type: functional, cell-based; details: Oocyte
[7] = target: T2, GABA-A receptor; alpha-1/beta-2/gamma-2 (Homo sapiens); test: Antagonist activity at human recombinant GABAA alpha1beta2gamma2L receptor expressed in Xenopus laevis oocytes assessed as inhibition of GABA-induced current at 600 uM by two electrode voltage clamp technique; type: functional, cell-based; details: Oocyte
[8] = target: T1, Gamma-aminobutyric acid receptor subunit rho-1; test: Antagonist activity at human recombinant GABAc rho-1 receptor expressed in Xenopus laevis oocytes assessed as inhibition of GABA-induced current at 600 uM by two electrode voltage clamp technique; type: functional, cell-based; details: Oocyte
[9] = target: T3, GABA-B receptor (Homo sapiens); test: […] activity at human recombinant GABAb 1b/2 receptor expressed in Xenopus laevis oocytes co-expressing GIRK1/4 assessed as inhibition of GABA-induced current at 10 uM by two electrode voltage clamp technique; type: functional, cell-based; details: Oocyte
[10] = target: T3, GABA-B receptor (Homo sapiens); test: […] activity at human recombinant GABAb 1b/2 receptor expressed in Xenopus laevis oocytes co-expressing GIRK1/4 assessed as inhibition of GABA-induced current at 600 uM by two electrode voltage clamp technique; type: functional, cell-based; details: Oocyte
[11] = target: T3, GABA-B receptor (Homo sapiens); test: […] activity at human recombinant GABAb 1b/2 receptor expressed in Xenopus laevis oocytes co-expressing GIRK1/4 assessed as inhibition of GABA-induced current by two electrode voltage clamp technique; type: functional, cell-based; details: Oocyte

T1 sequence (P24046 whole entry): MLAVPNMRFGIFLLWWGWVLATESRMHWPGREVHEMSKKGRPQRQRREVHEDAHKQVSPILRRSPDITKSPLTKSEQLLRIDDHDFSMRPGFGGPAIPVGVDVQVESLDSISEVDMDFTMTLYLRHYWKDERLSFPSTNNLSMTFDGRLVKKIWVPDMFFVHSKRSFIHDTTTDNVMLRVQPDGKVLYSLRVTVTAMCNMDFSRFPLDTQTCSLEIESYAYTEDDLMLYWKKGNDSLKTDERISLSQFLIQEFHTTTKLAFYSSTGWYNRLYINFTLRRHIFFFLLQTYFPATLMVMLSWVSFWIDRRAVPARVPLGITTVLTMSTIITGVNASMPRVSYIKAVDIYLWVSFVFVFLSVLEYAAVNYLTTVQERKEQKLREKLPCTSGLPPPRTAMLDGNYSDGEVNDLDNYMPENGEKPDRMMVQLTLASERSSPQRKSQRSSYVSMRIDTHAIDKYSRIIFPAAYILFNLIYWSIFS
Chain of Gamma-aminobutyric acid receptor subunit rho-2 (P28476 whole entry): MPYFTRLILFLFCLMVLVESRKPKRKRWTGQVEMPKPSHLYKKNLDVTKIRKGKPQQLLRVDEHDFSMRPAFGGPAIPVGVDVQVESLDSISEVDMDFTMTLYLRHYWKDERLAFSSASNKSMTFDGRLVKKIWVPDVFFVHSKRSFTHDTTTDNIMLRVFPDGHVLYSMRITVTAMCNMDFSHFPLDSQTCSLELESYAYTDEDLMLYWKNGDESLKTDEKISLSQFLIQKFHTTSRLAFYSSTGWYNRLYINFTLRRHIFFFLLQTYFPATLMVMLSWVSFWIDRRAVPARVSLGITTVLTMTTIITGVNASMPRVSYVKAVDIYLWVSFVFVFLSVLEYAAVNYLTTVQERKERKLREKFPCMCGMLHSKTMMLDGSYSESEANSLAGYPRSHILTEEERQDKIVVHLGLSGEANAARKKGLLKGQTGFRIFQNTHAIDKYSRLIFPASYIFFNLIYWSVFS
Chain of GABA-B receptor (Q9UBS5 whole entry): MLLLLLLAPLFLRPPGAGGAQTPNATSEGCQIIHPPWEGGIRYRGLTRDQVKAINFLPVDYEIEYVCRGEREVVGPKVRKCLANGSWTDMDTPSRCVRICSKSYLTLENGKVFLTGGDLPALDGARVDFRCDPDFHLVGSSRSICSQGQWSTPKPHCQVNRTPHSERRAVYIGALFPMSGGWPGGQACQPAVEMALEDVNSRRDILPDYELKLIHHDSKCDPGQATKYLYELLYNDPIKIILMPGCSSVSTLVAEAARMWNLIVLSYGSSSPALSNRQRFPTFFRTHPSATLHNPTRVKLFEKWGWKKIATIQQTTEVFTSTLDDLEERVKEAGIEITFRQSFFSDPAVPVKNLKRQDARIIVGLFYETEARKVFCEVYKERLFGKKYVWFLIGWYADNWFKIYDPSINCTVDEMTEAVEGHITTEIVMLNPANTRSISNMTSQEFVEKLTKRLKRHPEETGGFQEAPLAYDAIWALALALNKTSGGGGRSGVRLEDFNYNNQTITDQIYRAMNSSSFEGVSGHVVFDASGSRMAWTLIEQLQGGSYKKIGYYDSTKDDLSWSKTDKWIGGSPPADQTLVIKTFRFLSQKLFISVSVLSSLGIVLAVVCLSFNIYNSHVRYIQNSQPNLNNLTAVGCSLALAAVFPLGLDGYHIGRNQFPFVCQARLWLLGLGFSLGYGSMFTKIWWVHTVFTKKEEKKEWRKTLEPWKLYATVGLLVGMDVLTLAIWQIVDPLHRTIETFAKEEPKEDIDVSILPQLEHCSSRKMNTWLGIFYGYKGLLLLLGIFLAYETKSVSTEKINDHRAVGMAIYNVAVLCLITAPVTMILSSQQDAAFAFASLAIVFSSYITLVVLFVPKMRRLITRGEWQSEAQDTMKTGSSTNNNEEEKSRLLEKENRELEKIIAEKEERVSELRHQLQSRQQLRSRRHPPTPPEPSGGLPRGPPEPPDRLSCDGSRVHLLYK
Chain of GABA-B receptor (O75899 whole entry): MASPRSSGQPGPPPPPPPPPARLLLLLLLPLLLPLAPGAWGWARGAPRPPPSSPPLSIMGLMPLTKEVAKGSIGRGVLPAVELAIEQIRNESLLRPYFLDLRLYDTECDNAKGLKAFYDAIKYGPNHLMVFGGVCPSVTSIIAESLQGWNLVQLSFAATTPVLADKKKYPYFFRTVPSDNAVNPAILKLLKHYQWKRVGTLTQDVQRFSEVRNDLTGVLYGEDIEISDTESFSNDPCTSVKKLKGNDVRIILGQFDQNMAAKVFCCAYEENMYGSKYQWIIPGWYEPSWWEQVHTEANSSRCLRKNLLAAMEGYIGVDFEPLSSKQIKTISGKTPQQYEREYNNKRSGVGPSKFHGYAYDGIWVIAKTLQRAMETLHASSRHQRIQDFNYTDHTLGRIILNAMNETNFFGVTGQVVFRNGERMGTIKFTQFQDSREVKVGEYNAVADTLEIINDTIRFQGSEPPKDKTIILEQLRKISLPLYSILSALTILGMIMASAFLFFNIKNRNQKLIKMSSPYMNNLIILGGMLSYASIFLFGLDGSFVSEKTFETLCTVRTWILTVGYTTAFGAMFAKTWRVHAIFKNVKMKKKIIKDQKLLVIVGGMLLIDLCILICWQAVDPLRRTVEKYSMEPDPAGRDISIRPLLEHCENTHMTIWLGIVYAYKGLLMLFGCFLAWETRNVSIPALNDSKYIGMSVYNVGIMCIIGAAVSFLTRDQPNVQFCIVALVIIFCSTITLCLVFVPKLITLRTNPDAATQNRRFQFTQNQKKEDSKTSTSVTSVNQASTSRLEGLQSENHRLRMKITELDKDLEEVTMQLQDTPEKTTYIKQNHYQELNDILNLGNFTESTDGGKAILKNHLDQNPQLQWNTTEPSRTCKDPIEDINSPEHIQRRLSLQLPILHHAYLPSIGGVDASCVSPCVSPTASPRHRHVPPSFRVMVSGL

Structure (SMILES): CP(=O)(O)C1=CCNCC1
EC50 (GABA-B receptor): 500 µM
IC50 [1]: 2.22 µM
IC50 [2]: 22.1 µM
Kb ([2]; Oocyte): 14.9 µM

Structure (SMILES): O=C(O)C1CCP(=O)(O)C1 (stereo not drawn)
inhibition [3]: inactive
inhibition [4]: inactive

Structure (SMILES): CCCCP(=O)(O)C1=CC[C@H](N)C1
inhibition [5]: 24.2%
inhibition [6]: 22.5%
Kb [1]: 2.1 µM

inhibition [7]: inactive
inhibition [8]: inactive
Structure (SMILES): NC1CCP(=O)(O)C1 (stereo not drawn)

Structure (SMILES): NCC1CCP(=O)(O)C1 (stereo not drawn)
inhibition [9]: inactive
inhibition [10]: 45.2%
inhibition [11]: Dose-dependent effect
inhibition [7]: inactive
IC50 [1]: 19.9 µM
IC50 [2]: 57.1 µM

Structure (SMILES): O=P1(O)CCC(CO)C1 (stereo not drawn)
inhibition [3]: inactive
inhibition [4]: inactive

Structure (SMILES): N=C(N)NC1CCP(=O)(O)C1 (stereo not drawn)
inhibition [7]: 29.2%
IC50 [1]: 29.7 µM
Kb [1]: 10 µM
IC50 [2]: 51.3 µM
